Key:
Assay in all cases: relative viability (nuclei count vs DMSO), 5 days (fraction); higher = more cells survive
NCI-H1666 = system: NCI-H1666
In short: (§1)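 Relative viability was taken as the ratio of nuclei in treated wells to nuclei in vehicle wells. Lung cancer cell lines in 1536-well plates received compounds by pin tool one day after seeding, either one drug alone or a fixed anchor-drug dose plus five library-drug doses (not always all listed) in √10 steps. Nuclei were counted on 4× images after 5 days of treatment, and values are medians of duplicate plates.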

NCI-H1755 = system: NCI-H1755
In short: as §1

NCI-H1650 = system: NCI-H1650
In short: as §1

NCI-H650 = system: NCI-H650
In short: as §1

A549 = system: A549
In short: as §1

IA-LM = system: IA-LM
In short: as §1

NCI-H1299 = system: NCI-H1299
In short: as §1

EBC-1 = system: EBC-1
In short: as §1

NCI-H1703 = system: NCI-H1703
In short: as §1

Calu-6 = system: Calu-6
In short: as §1

`Oc1nc(-c2ccc(C(F)(F)F)cc2)nc2c1CSCC2` [XAV939] + CC(=O)c1c(C)c2cnc(Nc3ccc(N4CCNCC4)cn3)nc2n(C2CCCC2)c1=O [Palbociclib] (partner 0.5 µM) was tested, and the relative viability (NCI-H1666; first compound 0.08 µM) was 0.678, the relative viability (NCI-H1666; first compound 0.253 µM) was 0.552 and the relative viability (NCI-H1666; first compound 0.8 µM) was 0.623. The relative viability (NCI-H1666; first compound 2.53 µM) was 0.64, the relative viability (NCI-H1755; first compound 0.08 µM) was 0.439 and the relative viability (NCI-H1755; first compound 0.253 µM) was 0.341. For the same molecule, the relative viability (NCI-H1755; first compound 0.8 µM) was 0.458, the relative viability (NCI-H1755; first compound 2.53 µM) was 0.414 and the relative viability (NCI-H1650; first compound 0.08 µM) was 0.268. The relative viability (NCI-H1650; first compound 0.253 µM) was 0.297, the relative viability (NCI-H1650; first compound 0.8 µM) was 0.299 and the relative viability (NCI-H1650; first compound 2.53 µM) was 0.234. It also gave a relative viability (NCI-H650; first compound 0.08 µM) of 0.376, a relative viability (NCI-H650; first compound 0.253 µM) of 0.35 and a relative viability (NCI-H650; first compound 0.8 µM) of 0.333. For the same molecule, the relative viability (NCI-H650; first compound 2.53 µM) was 0.303.

Molecule `Oc1nc(-c2ccc(C(F)(F)F)cc2)nc2c1CSCC2` [XAV939] + CC1(C)CCC(c2ccc(Cl)cc2)=C(CN2CCN(c3ccc(C(=O)NS(=O)(=O)c4ccc(N[C@H](CCN5CCOCC5)CSc5ccccc5)c(S(=O)(=O)C(F)(F)F)c4)cc3)CC2)C1 [Navitoclax] (partner 0.5 µM) has a relative viability (A549; first compound 0.08 µM) of 1.49, a relative viability (A549; first compound 0.253 µM) of 1.06 and a relative viability (A549; first compound 0.8 µM) of 1.12. It also gave a relative viability (A549; first compound 2.53 µM) of 1.06, a relative viability (IA-LM; first compound 0.08 µM) of 0.89 and a relative viability (IA-LM; first compound 0.253 µM) of 0.698. The relative viability (IA-LM; first compound 0.8 µM) was 0.781, the relative viability (IA-LM; first compound 2.53 µM) was 0.463 and the relative viability (NCI-H1299; first compound 0.08 µM) was 1.07. It also gave a relative viability (NCI-H1299; first compound 0.253 µM) of 1.02, a relative viability (NCI-H1299; first compound 0.8 µM) of 1.1 and a relative viability (NCI-H1299; first compound 2.53 µM) of 1.04. For the same molecule, the relative viability (EBC-1; first compound 0.08 µM) was 0.489, the relative viability (EBC-1; first compound 0.253 µM) was 0.413 and the relative viability (EBC-1; first compound 0.8 µM) was 0.404. It also gave a relative viability (EBC-1; first compound 2.53 µM) of 0.447, a relative viability (NCI-H1666; first compound 0.08 µM) of 0.847 and a relative viability (NCI-H1666; first compound 0.253 µM) of 0.721. It also gave a relative viability (NCI-H1666; first compound 0.8 µM) of 0.903, a relative viability (NCI-H1666; first compound 2.53 µM) of 0.469 and a relative viability (NCI-H1703; first compound 0.08 µM) of 1.33. The relative viability (NCI-H1703; first compound 0.253 µM) was 1.35, the relative viability (NCI-H1703; first compound 0.8 µM) was 0.89 and the relative viability (NCI-H1703; first compound 2.53 µM) was 0.844. The relative viability (Calu-6; first compound 0.08 µM) was 0.909, the relative viability (Calu-6; first compound 0.253 µM) was 0.779 and the relative viability (Calu-6; first compound 0.8 µM) was 0.867. For the same molecule, the relative viability (Calu-6; first compound 2.53 µM) was 0.857, the relative viability (NCI-H1755; first compound 0.08 µM) was 0.945 and the relative viability (NCI-H1755; first compound 0.253 µM) was 0.796. The relative viability (NCI-H1755; first compound 0.8 µM) was 0.907, the relative viability (NCI-H1755; first compound 2.53 µM) was 0.853 and the relative viability (NCI-H1650; first compound 0.08 µM) was 1.18. It also gave a relative viability (NCI-H1650; first compound 0.253 µM) of 1.25, a relative viability (NCI-H1650; first compound 0.8 µM) of 1.05 and a relative viability (NCI-H1650; first compound 2.53 µM) of 0.653.

For `C=C1C(=O)O[C@@H](CCCCCCCC)[C@@H]1C(=O)O` [C-75] + CC(=O)c1c(C)c2cnc(Nc3ccc(N4CCNCC4)cn3)nc2n(C2CCCC2)c1=O [Palbociclib] (partner 0.5 µM), the relative viability (NCI-H1666; first compound 0.08 µM) was 0.626, the relative viability (NCI-H1666; first compound 0.253 µM) was 0.638 and the relative viability (NCI-H1666; first compound 0.8 µM) was 0.662. For the same molecule, the relative viability (NCI-H1666; first compound 8 µM) was 0.594, the relative viability (NCI-H1755; first compound 0.08 µM) was 0.417 and the relative viability (NCI-H1755; first compound 0.253 µM) was 0.428. It also gave a relative viability (NCI-H1755; first compound 0.8 µM) of 0.42, a relative viability (NCI-H1755; first compound 2.53 µM) of 0.378 and a relative viability (NCI-H1755; first compound 8 µM) of 0.408. The relative viability (NCI-H1650; first compound 0.08 µM) was 0.431, the relative viability (NCI-H1650; first compound 0.253 µM) was 0.414 and the relative viability (NCI-H1650; first compound 0.8 µM) was 0.342. The relative viability (NCI-H1650; first compound 8 µM) was 0.38, the relative viability (NCI-H650; first compound 0.08 µM) was 0.31 and the relative viability (NCI-H650; first compound 0.253 µM) was 0.27. For the same molecule, the relative viability (NCI-H650; first compound 0.8 µM) was 0.36, the relative viability (NCI-H650; first compound 2.53 µM) was 0.283 and the relative viability (NCI-H650; first compound 8 µM) was 0.39.

Work on `Oc1nc(-c2ccc(C(F)(F)F)cc2)nc2c1CSCC2` [XAV939] + CC(=O)Nc1cccc(-n2c(=O)n(C3CC3)c(=O)c3c(Nc4ccc(I)cc4F)n(C)c(=O)c(C)c32)c1 [Trametinib] (partner 0.02 µM) yielded a relative viability (NCI-H1666; first compound 0.08 µM) of 1, a relative viability (NCI-H1666; first compound 0.253 µM) of 0.834 and a relative viability (NCI-H1666; first compound 0.8 µM) of 0.754. For the same molecule, the relative viability (NCI-H1666; first compound 2.53 µM) was 0.871, the relative viability (NCI-H1755; first compound 0.08 µM) was 0.719 and the relative viability (NCI-H1755; first compound 0.253 µM) was 0.64. It also gave a relative viability (NCI-H1755; first compound 0.8 µM) of 0.661, a relative viability (NCI-H1755; first compound 2.53 µM) of 0.692 and a relative viability (NCI-H1650; first compound 0.08 µM) of 0.568. The relative viability (NCI-H1650; first compound 0.253 µM) was 0.511, the relative viability (NCI-H1650; first compound 0.8 µM) was 0.591 and the relative viability (NCI-H1650; first compound 2.53 µM) was 0.303. The relative viability (NCI-H650; first compound 0.08 µM) was 1.08, the relative viability (NCI-H650; first compound 0.253 µM) was 1.05 and the relative viability (NCI-H650; first compound 0.8 µM) was 1. The relative viability (NCI-H650; first compound 2.53 µM) was 0.92.

Molecule `C=C1C(=O)O[C@@H](CCCCCCCC)[C@@H]1C(=O)O` [C-75] + CC(=O)Nc1cccc(-n2c(=O)n(C3CC3)c(=O)c3c(Nc4ccc(I)cc4F)n(C)c(=O)c(C)c32)c1 [Trametinib] (partner 0.02 µM) has a relative viability (NCI-H1666; first compound 0.08 µM) of 0.869, a relative viability (NCI-H1666; first compound 0.253 µM) of 1.01 and a relative viability (NCI-H1666; first compound 0.8 µM) of 0.807. It also gave a relative viability (NCI-H1666; first compound 8 µM) of 0.728, a relative viability (NCI-H1755; first compound 0.08 µM) of 0.763 and a relative viability (NCI-H1755; first compound 0.253 µM) of 0.748. For the same molecule, the relative viability (NCI-H1755; first compound 0.8 µM) was 0.76, the relative viability (NCI-H1755; first compound 2.53 µM) was 0.677 and the relative viability (NCI-H1755; first compound 8 µM) was 0.702. It also gave a relative viability (NCI-H1650; first compound 0.08 µM) of 0.462, a relative viability (NCI-H1650; first compound 0.253 µM) of 0.553 and a relative viability (NCI-H1650; first compound 0.8 µM) of 0.602. It also gave a relative viability (NCI-H1650; first compound 8 µM) of 0.555, a relative viability (NCI-H650; first compound 0.08 µM) of 0.965 and a relative viability (NCI-H650; first compound 0.253 µM) of 0.961. The relative viability (NCI-H650; first compound 0.8 µM) was 0.967, the relative viability (NCI-H650; first compound 2.53 µM) was 0.768 and the relative viability (NCI-H650; first compound 8 µM) was 1.

— the supplement of paper PMC10307832
